In US8367666B2 (priority 2004, dated 2013):
Where two headings read alike, the source gives them in different places.

Assays:
CB1 receptor [1] = target: T1, CB1 receptor (Homo sapiens, UniProt P21554); assay: cAMP formation inhibition experiment through a cannabinoid receptor (forskolin stimulation), CB1; format: cell-based; parameters: expressed in transfected cells; host or cells: CHO cells
Description: A compound being tested was added in the CHO cell which had mad human CB1 or CB2 receptor reveal and incubated for 15 minutes, and then forskolin (the final concentration 4 μM, and manufactured by SIGMA Corp.) was added and the mixture was incubated for 20 minutes. After the reaction had been stopped by adding 1M hydrochloric acid, the amount of cAMP in the supernatant was measured with the use of Cyclic AMP kit (made by the CIS Diagnostic Corp.).

CB1 receptor [2] = target: T1, CB1 receptor; assay: Human cannabinoid receptor bonding inhibition test ([3H]CP55940), CB1; format: binding; parameters: expressed in transfected cells; membrane fraction
CB2 receptor [3] = target: T2, CB2 receptor (Homo sapiens, UniProt P34972); assay: Human cannabinoid receptor bonding inhibition test ([3H]CP55940), CB2; format: binding; parameters: expressed in transfected cells; membrane fraction
[4] = tested on: scratching action induced by Compound 48/80; assay: Anti-pruritic activity test by application (Compound 48/80 scratching); format: in vivo, mouse (Crj:CD-1 (ICR)); conditions: topical, read-out: Itching inhibition ratio % (Concentration %)
Description: 1) Preparation of the compound and the reagent: The compound being tested was dissolved in acetone (SIGMA). Compound 48/80 (SIGMA) was dissolved in physiological saline (m by Otsuka Pharmaceutical Co., Ltd.) so as to be 60 μg/mL.
2) Animals: Female Crj: CD-1 (ICR) mice of 6 to 10 age in week (Japan Charles Liver) were used as laboratory animals. The animals were fed in the barrier breeding room where […] in room temperature, 30 to 70% in humidity, and the light and shade condition existed every 12 hours and feed (CE-2: Japan Crea) and the drinking water were freely taken. The hair of dorsa (from the cervical region of the back to the center of the back) of the animals were cut with a hair clipper two days or more before the anti-pruritic activity is evaluated, those with no wound, rubefaction, and thickening of the skin on the dehaired part were chosen and supplied to the experiment on the day of the evaluation. 3) Evaluation procedures: The acetone solution of the compound being tested was applied by 50 μL on the dehaired parts of the mice with a pipeter. On the mice of the control group, 50 μL of acetone was applied. The 15 minutes later, 50 μL (corresponding to 3 μg) of Compound 48/80 solution was injected intradermally in the compound applied parts with the use of a injector (Terumo Corporation), the mice were individually put in five observation cages made of acrylate resin at once, and the scratching action (action of scratching the injection part by the hind leg) frequency during 30 minutes was measured. The evaluation was carried out in one group of 5 to 7 mice. 4) Data processing: The experiment results were shown by the mean values. The test of the significant difference of the compound applying group to the control group was conducted with Welch's t-test, and p<0.05 was assumed to be significant.

CB2 receptor [5] = target: T2, CB2 receptor; assay: cAMP formation inhibition experiment through a cannabinoid receptor (forskolin stimulation), CB2; format: cell-based; parameters: expressed in transfected cells; host or cells: CHO cells
[6] = read-out: Agonist activity (nM) CB1
[7] = [3H]CP55940 0.5 nM, membrane preparation of CHO cells expressing CB1, Ki calculated from IC50, read-out: Binding activity (nM) CB1
[8] = read-out: Binding activity (nM) CB1
[9] = read-out: Agonist activity (nM) CB2
[10] = inhibition of forskolin (4 μM)-stimulated cAMP formation, CHO cells expressing human CB2, read-out: Agonist activity (nM) CB2

T2 sequence (P34972 whole entry): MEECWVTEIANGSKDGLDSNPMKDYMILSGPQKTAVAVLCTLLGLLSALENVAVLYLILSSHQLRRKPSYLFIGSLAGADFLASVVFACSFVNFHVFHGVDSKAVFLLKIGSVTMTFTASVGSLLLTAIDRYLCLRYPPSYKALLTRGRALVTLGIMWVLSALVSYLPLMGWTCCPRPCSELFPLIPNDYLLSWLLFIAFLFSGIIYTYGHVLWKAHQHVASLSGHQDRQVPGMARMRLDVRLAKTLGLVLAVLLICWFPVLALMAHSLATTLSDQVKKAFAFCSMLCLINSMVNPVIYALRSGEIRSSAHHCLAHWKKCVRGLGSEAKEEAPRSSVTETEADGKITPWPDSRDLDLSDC
T1 sequence (P21554 whole entry): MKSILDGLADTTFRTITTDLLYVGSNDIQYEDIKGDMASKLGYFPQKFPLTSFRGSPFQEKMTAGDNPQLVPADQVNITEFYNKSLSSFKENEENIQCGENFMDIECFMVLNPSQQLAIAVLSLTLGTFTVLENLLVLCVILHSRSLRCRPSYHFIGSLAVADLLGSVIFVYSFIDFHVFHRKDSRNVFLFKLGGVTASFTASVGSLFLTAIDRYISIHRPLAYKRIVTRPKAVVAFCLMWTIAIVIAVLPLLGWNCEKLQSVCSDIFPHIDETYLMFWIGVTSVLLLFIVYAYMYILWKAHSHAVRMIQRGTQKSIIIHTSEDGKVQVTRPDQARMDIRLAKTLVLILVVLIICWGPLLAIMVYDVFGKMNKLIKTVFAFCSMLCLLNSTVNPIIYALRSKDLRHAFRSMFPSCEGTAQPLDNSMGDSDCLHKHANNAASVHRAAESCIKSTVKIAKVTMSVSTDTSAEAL

Structure (SMILES)	IC50 (CB1 receptor [1]; [6]) [nM]	Ki (CB1 receptor [2]) [nM]	Ki (CB2 receptor [3]) [nM]	inhibition in vivo at 3 % ([4]; Mus musculus) [%]	IC50 (CB2 receptor [5]) [nM]	IC50 (CB1 receptor [1]) [nM]	Ki (CB1 receptor [2]; [7]) [nM]	other results
CC(C)(NC(=O)c1cc2c(n(CC3CCCCC3)c1=O)CCCCCC2)C(=O)Nc1ccc(NS(C)(=O)=O)cc1 [Compound I-533]	> 2000	21	< 2	73	< 2	–	–	–
CC(C)NC(=O)N1CCN(C(=O)C(C)(C)NC(=O)c2cc3c(n(CC4CCCCC4)c2=O)CCCCCC3)CC1 [Compound I-604]	55	16	2.5	95	4.8	–	–	–
O=C(O)Cc1cnc(NC(=O)c2cc3c(n(CCCC(F)(F)F)c2=O)CCCCCC3)s1 [Compound X-115]	–	–	3.3	–	8.6	> 2000	1220	inhibition in vivo at 0.5 % ([4]; Mus musculus): 67%
CC[C@@H](C)[C@H](NC(=O)c1cc(C)c(C)n(CC2CCCCC2)c1=O)C(=O)OC [Compound I-089]	< 2	< 2	< 2	–	< 2	–	–	inhibition in vivo at 0.5 % ([4]; Mus musculus): 65%
CC(C)CCn1c2c(cc(C(=O)N[C@@H](C(=O)O)c3ccccc3)c1=O)CCCCCC2 [Compound I-424]	–	–	3	62	5.9	> 2000	357	–
CC(C)(NC(=O)c1cc2c(n(CC3CCCCC3)c1=O)CCCCCC2)C(=O)NNC(=O)c1cccnc1 [Compound I-556]	357	8.1	< 2	76	3.5	–	–	–
O=C(O)COc1ccc(NC(=O)c2cc3c(n(CC4CCCCC4)c2=O)CCCCCC3)cc1 [Compound X-220]	–	–	18	–	–	1550	–	Ki (CB1 receptor [2]; [8]): 555 nM; inhibition in vivo at 0.5 % ([4]; Mus musculus): 97%; IC50 (CB2 receptor [5]; [9]): 231 nM
CCCCC(CC(=O)O)NC(=O)c1cc2c(n(CC3CCCCC3)c1=O)CCCCCC2 (stereo not shown) [Compound X-67]	–	–	96	–	40	> 2000	> 2000	inhibition in vivo at 1 % ([4]; Mus musculus): 79%
CC(=O)N1CCN(C(=O)C(C)(C)NC(=O)c2cc3c(n(CC4CCCCC4)c2=O)CCCCCC3)CC1 [Compound I-579]	–	–	7.3	99	27	431	158	–
CC(C)(CNCCC(N)=O)NC(=O)c1cc2c(n(CC3CCCCC3)c1=O)CCCCCC2 [Compound I-588]	72	41	10	–	5.7	–	–	inhibition in vivo at 1 % ([4]; Mus musculus): 81%
CC(C)NC(=O)NC1CCN(C(=O)C(C)(C)NC(=O)c2cc3c(n(CC4CCCCC4)c2=O)CCCCCC3)CC1 [Compound I-599]	37	37	4	–	13	–	–	inhibition in vivo at 0.5 % ([4]; Mus musculus): 67%
CCOC(=O)C1CCCCC1NC(=O)c1cc2c(n(CCCNC(C)=O)c1=O)CCCCCC2 (stereo not shown) [II-031]	–	> 2000	2.5	–	9.9	–	–	inhibition in vivo at 2 % ([4]; Mus musculus): 55%
O=C(O)Cc1csc(NC(=O)c2cc3c(n(CC4CCCCC4)c2=O)CCCCCC3)n1 [IV-023]	–	–	–	–	–	–	425	IC50 (CB1 receptor [1]; inhibition of forskolin (4 μM)-stimulated cAMP formation, CHO cells expressing human CB1, read-out: Agonist activity (nM) CB1): 398 nM; Ki (CB2 receptor [3]; [3H]CP55940 0.5 nM, membrane preparation of CHO cells expressing CB2, Ki calculated from IC50, read-out: Binding activity (nM) CB2): 22 nM; inhibition in vivo at 3 % ([4]; applied as acetone solution 50 μL, concentration 3.0%, mouse, Compound 48/80): 116%; IC50 (CB2 receptor [5]; [10]): 11 nM
O=C(NC(C(=O)O)C(F)(F)F)c1cc2c(n(CC3CCCCC3)c1=O)CCCCCC2 (stereo not shown) [Compound X-229]	–	–	12	–	27	369	482	inhibition in vivo at 0.5 % ([4]; Mus musculus): 105%
CCCCn1c(CCC)c(CC)cc(C(=O)NC2(C(=O)O)CCCCC2)c1=O [Compound I-411]	–	–	–	–	–	> 2000	–	Ki (CB1 receptor [2]; [8]): > 2000 nM; Ki (CB2 receptor [3]; read-out: Binding activity (nM) CB2): 382 nM; inhibition in vivo at 0.5 % ([4]; Mus musculus): 80%; IC50 (CB2 receptor [5]; [9]): 556 nM
CNC(=O)CNC(=O)C(C)(C)NC(=O)c1cc2c(n(CC3CCCCC3)c1=O)CCCCCC2 [Compound I-590]	51	66	16	75	2.4	–	–	–

Structure (SMILES)	IC50 (CB1 receptor [1]; [6]) [nM]	Ki (CB1 receptor [2]) [nM]	Ki (CB2 receptor [3]) [nM]	inhibition in vivo at 3 % ([4]; Mus musculus) [%]	IC50 (CB2 receptor [5]) [nM]	IC50 (CB1 receptor [1]) [nM]	Ki (CB1 receptor [2]; [7]) [nM]	other results
O=C(O)CC(NC(=O)c1cc2c(n(CC3CCCCC3)c1=O)CCCCCC2)C(F)(F)F (stereo not shown) [II-076]	–	–	41	86	1.2	> 2000	> 2000	–
CCc1c(C)cc(C(=O)NC(CC)(CC)CC(=O)O)c(=O)n1Cc1ccc(F)cc1 [Compound X-216]	–	–	3.3	–	30	> 2000	1770	inhibition in vivo at 1 % ([4]; Mus musculus): 106%
CC(C)(NC(=O)c1cc2c(n(CC3CCCCC3)c1=O)CCCCCC2)C(=O)N1CCC(NS(=O)(=O)C(C)(C)C)CC1 [Compound I-048]	328	118	2.6	58	17	–	–	–
CC(C)(CCNC(=O)c1cc2c(n(CC3CCCCC3)c1=O)CCCCCC2)C(=O)O [III-017]	–	–	15	76	35	322	149	–
O=C(O)CC1(NC(=O)c2cc3c(n(CC4CCCCC4)c2=O)CCCCCC3)CCCCC1 [II-073]	11	88	6.2	58	0.2	–	–	–
C/C=C/C(CC(=O)O)NC(=O)c1cc2c(n(CC3CCCCC3)c1=O)CCCCCC2 (stereo not shown) [II-075]	–	–	48	95	4.6	290	652	–
O=C(O)CC(NC(=O)c1cc2c(n(Cc3ccc(F)cc3)c1=O)CCCCCC2)C(F)(F)F (stereo not shown) [II-067]	–	–	13	68	4.9	685	> 2000	–
CC(C)(C)OC(=O)NC1CCN(C(=O)C(C)(C)NC(=O)c2cc3c(n(CC4CCCCC4)c2=O)CCCCCC3)CC1 [Compound I-570]	709	68	11	84	12	–	–	–
O=C(N[C@H](C(=O)O)c1ccccc1)c1cc2c(n(CC3CCCCC3)c1=O)CCCCCC2 [Compound I-402]	–	–	< 2	59	–	–	34	IC50 (CB2 receptor [5]; [10]): 5.7 nM
CCOC(=O)C(C)(C)NC(=O)c1cc2c(n(CC3CCCCC3)c1=O)CCCCCC2 [Compound I-300]	< 2	< 2	< 2	–	–	–	–	inhibition in vivo at 0.5 % ([4]; Mus musculus): 41%
COCOC(=O)C(C)(C)NC(=O)c1cc2c(n(CC3CCCCC3)c1=O)CCCCCC2 [Compound I-306]	< 2	< 2	< 2	–	–	–	–	inhibition in vivo at 0.5 % ([4]; Mus musculus): 83%
COC(=O)[C@@H](NC(=O)c1cc2c(n(Cc3ccc(F)cc3)c1=O)CCCCCC2)C(C)(C)C [Compound I-263]	< 2	< 2	< 2	–	–	–	–	inhibition in vivo at 1.5 % ([4]; Mus musculus): 57%
CCCCn1c2c(cc(C(=O)N[C@H](C(=O)OC)C(C)C)c1=O)CCCCCC2 [Compound I-111]	< 2	3.5	< 2	–	–	–	–	inhibition in vivo at 0.1 % ([4]; Mus musculus): 55%
CC(C)(NC(=O)c1cc2c(n(CC3CCCCC3)c1=O)CCCCCC2)C(=O)OCC(O)CO (stereo not shown) [Compound I-305]	< 2	< 2	< 2	–	–	–	–	inhibition in vivo at 0.5 % ([4]; Mus musculus): 61%
COC(=O)C(C)(C)NC(=O)c1cc2c(n(Cc3ccc(F)cc3)c1=O)CCCCCC2 [Compound I-255]	< 2	2.1	< 2	–	–	–	–	inhibition in vivo at 1.5 % ([4]; Mus musculus): 93%
COC(=O)[C@@H](NC(=O)c1cc2c(n(Cc3ccc(F)cc3)c1=O)CCCCCC2)C(C)C [Compound I-253]	< 2	< 2	< 2	–	–	–	–	inhibition in vivo at 1.5 % ([4]; Mus musculus): 70%
